Results: ChEMBL document CHEMBL5390201, “The Natural Alkaloid (-)-N-Hydroxyapiosporamide Suppresses Colorectal Tumor Progression as an NF-κB Pathway Inhibitor by Targeting the TAK1-TRAF6 Complex” (J Nat Prod, 2023)
Activity calls are given as the source filed them. The calls are words filed in the database; no cut-off is given here.

Key:
HCT-116 [1] = experiment: Induction of cell cycle arrest in human HCT-116 cells assessed as accumulation of cells at G0/G1 phase at 5 uM by RNase/PI staining based flow cytometry analysis (reference value: 33.08 %); type: functional
Mus musculus [2] = experiment: (§1) Anti-inflammatory activity in AOM/DSS-induced BALB/c mouse model inflammatory bowel disease assessed as reduction in tumor number at 5 to 10 mg/kg, ip pretreated with AOM for 7 days further replaced with DSS for 7 days and repeated for 2 times followed by every 2 days compound treatment for […] starting from day 50 and measured once a week; type: functional, organism-based; conditions: dose 5-10 mg/kg, time 21.0 day
HCT-116 [3] = experiment: Induction of autophagic cell death in human HCT-116 cells at 1 to 10 uM pretreated with 3-methyladenine for 1 hr followed by compound addition and measured after 24 hrs by SRB assay; type: functional, cell-based; conditions: dose 1-10 µM
[4] = Toxicity in athymic nude BALB/c mouse assessed as change in serum AST level at 5 to 15 mg/kg, ip administered every other day and measured after 14 days; type: organism-based; conditions: in vivo, 336 h, dose 5-15 mg/kg, time 14 day
[5] = target: T1, Nuclear factor NF-kappa-B complex (Homo sapiens) (UniProt Q00653+P19838+Q04206); experiment: Inhibition of NFkappaB activation in HEK293T cells transfected with Flag-tagged MyD88 and kappaB luciferase/pTK-renilla reporters at 2 uM incubated for 6 hrs by Dual Luciferase Reporter Assay; type: cell-based; conditions: HEK-293T
[6] = Plasma clearance in Sprague-Dawley rat at 10 mg/kg, iv measured for 24 hrs by HPLC-MS/MS analysis; type: ADME, organism-based
Mus musculus [7] = experiment: In vivo inhibition of NFkappaB activation in LPS-induced BALB/c mouse model of endotoxin shock assessed as inhibition of IL6 mRNA expression in liver at 5 mg/kg, ip pretreated for 4 hrs followed by LPS stimulation for 1 hr by RT-PCR analysis; type: functional, organism-based; conditions: time 5.0 hrs
[8] = target: T1, Nuclear factor NF-kappa-B complex (Homo sapiens); experiment: Inhibition of NFkappaB activation in HEK293T cells transfected with HA-tagged p65 and kappaB luciferase/pTK-renilla reporters at 2 uM incubated for 6 hrs by Dual Luciferase Reporter Assay; type: cell-based; conditions: HEK-293T
HT-29 [9] = experiment: Induction of apoptosis in human HT-29 cells assessed as inhibition of PARP protein expression measured for 24 hrs by Western blot analysis; type: functional, cell-based; conditions: dose 0-10 µM
[10] = Toxicity in athymic nude BALB/c mouse xenografted with human HT-29 cells assessed as pathological changes in heart at 5 to 15 mg/kg, ip administered every other day and measured after 14 days by hematoxylin and eosin staining-based microscopic analysis; type: organism-based; conditions: in vivo, 336 h, dose 5-15 mg/kg, time 14 day
[11] = target: T1, Nuclear factor NF-kappa-B complex (Homo sapiens); experiment: Inhibition of TNF-alpha induced NFkappaB activation in human HCT-116 cells assessed as downregulation of A20 gene expression pretreated for 24 hrs followed by TNFalpha stimulation and measured after 2 hrs by quantitative RT-PCR analysis; type: cell-based; conditions: dose 1-10 µM, time 26.0 hrs
HCT-116 [12] = experiment: Induction of apoptosis in human HCT-116 cells assessed as late apoptotic cells at 1 uM incubated for 24 hrs by Annexin V-FITC/PI staining based flow cytometric analysis (reference value: 2.9 %); type: functional
[13] = Cmax in Sprague-Dawley rat at 10 mg/kg, ip measured for 240 mins by HPLC-MS/MS analysis; type: ADME, organism-based; parameters: time 240 min, dose 10 mg/kg, route ip; conditions: in vivo
[14] = target: T1, Nuclear factor NF-kappa-B complex (Homo sapiens); experiment: Inhibition of NFkappaB activation in HEK293T cells transfected with Flag-tagged TRAF2 and kappaB luciferase/pTK-renilla reporters at 2 uM incubated for 6 hrs by Dual Luciferase Reporter Assay; type: cell-based; conditions: HEK-293T
HCT-116 [15] = experiment: Induction of apoptosis in human HCT-116 cells assessed as early apoptotic cells at 10 uM incubated for 24 hrs by Annexin V-FITC/PI staining based flow cytometric analysis (reference value: 7.22 %); type: functional
HCT-116 [16] = experiment: Induction of apoptosis in human HCT-116 cells assessed as increase in cleavage of PARP measured for 24 hrs by Western blot analysis; type: functional, cell-based; conditions: dose 0-10 µM
Mus musculus [17] = experiment: as §1, with “distortion of glands” for “tumor number”, “at” for “at 5 to”, “50 by H” for “50”, “E staining based analysis” for “measured once a week”; type: functional, organism-based; conditions: time 21.0 day
HT-29 [18] = experiment: Induction of cell cycle arrest in human HT-29 cells assessed as accumulation of cells at G0/G1 phase at 5 uM by RNase/PI staining based flow cytometry analysis (reference value: 50.73 %); type: functional
HT-29 [19] = experiment: Induction of apoptosis in human HT-29 cells assessed as inhibition of caspase 8 protein expression measured for 24 hrs by Western blot analysis; type: functional, cell-based; conditions: dose 0-10 µM
Mus musculus [20] = experiment: as §1, with “hyperplasia” for “tumor number”, “at” for “at 5 to”, “50 by H” for “50”, “E staining based analysis” for “measured once a week”; type: functional, organism-based; conditions: time 21.0 day
HCT-116 [21] = experiment: Induction of cell cycle arrest in human HCT-116 cells assessed as accumulation of cells at S phase at 1 uM by RNase/PI staining based flow cytometry analysis (reference value: 43.77 %); type: functional
[22] = Toxicity in athymic nude BALB/c mouse assessed as change in serum ALT level at 5 to 15 mg/kg, ip administered every other day and measured after 14 days; type: organism-based; conditions: in vivo, 336 h, dose 5-15 mg/kg, time 14 day
HCT-116 [23] = experiment: Induction of apoptosis in human HCT-116 cells assessed as inhibition of PARP protein expression measured for 24 hrs by Western blot analysis; type: functional, cell-based; conditions: dose 0-10 µM
HT-29 [24] = experiment: Antitumor activity against human HT-29 cells xenografted in athymic nude BALB/c mouse assessed as induction of apoptosis by measuring increase in cleaved caspase 3 expression in tumor at 15 mg/kg, ip administered every other day and measured after 14 days by immunohistochemistry analysis; type: functional, organism-based; conditions: time 14.0 day
[25] = target: T1, Nuclear factor NF-kappa-B complex (Homo sapiens); experiment: Inhibition of TNF-alpha induced NFkappaB activation in human HCT-116 cells assessed as downregulation of MCP-1 gene expression pretreated for 24 hrs followed by TNFalpha stimulation and measured after 2 hrs by quantitative RT-PCR analysis; type: cell-based; conditions: dose 1-10 µM, time 26.0 hrs
HCT-116 [26] = experiment: Induction of apoptosis in human HCT-116 cells assessed as late apoptotic cells at 10 uM incubated for 24 hrs by Annexin V-FITC/PI staining based flow cytometric analysis (reference value: 2.9 %); type: functional
HCT-116 [27] = experiment: Induction of apoptosis in human HCT-116 cells assessed as viable cells at 5 uM incubated for 24 hrs by Annexin V-FITC/PI staining based flow cytometric analysis (reference value: 88.8%); type: functional; conditions: read-out: Activity
HT-29 [28] = experiment: Induction of apoptosis in human HT-29 cells assessed as viable cells at 0.5 uM incubated for 24 hrs by Annexin V-FITC/PI staining based flow cytometric analysis (reference value: 93 %); type: functional; conditions: read-out: Activity
[29] = Plasma clearance in Sprague-Dawley rat at 10 mg/kg, ip measured for 24 hrs by HPLC-MS/MS analysis; type: ADME, organism-based
HT-29 [30] = experiment: Inhibition of colony formation in human HT-29 cells at 0.25 to 10 uM incubated for 24 hrs and measured after 14 days by crystal violet staining based assay; type: functional, cell-based; conditions: dose 0.25-10 µM, time 14.0 day
HT-29 [31] = experiment: Induction of cell death in human HT-29 cells at 0.5 to 10 uM pretreated with Z-VAD-FMK for 1 hr followed by compound addition and measured after 24 hrs by SRB assay; type: functional, cell-based; conditions: dose 0.5-10 µM
HCT-116 [32] = experiment: Induction of autophagy in human HCT-116 cells assessed as increase in LC3I to LC3II conversion at 1 to 10 uM incubated for 24 hrs by Western blotting analysis; type: functional, cell-based; conditions: dose 1-10 µM

T1 sequence (P19838 whole entry, looked up): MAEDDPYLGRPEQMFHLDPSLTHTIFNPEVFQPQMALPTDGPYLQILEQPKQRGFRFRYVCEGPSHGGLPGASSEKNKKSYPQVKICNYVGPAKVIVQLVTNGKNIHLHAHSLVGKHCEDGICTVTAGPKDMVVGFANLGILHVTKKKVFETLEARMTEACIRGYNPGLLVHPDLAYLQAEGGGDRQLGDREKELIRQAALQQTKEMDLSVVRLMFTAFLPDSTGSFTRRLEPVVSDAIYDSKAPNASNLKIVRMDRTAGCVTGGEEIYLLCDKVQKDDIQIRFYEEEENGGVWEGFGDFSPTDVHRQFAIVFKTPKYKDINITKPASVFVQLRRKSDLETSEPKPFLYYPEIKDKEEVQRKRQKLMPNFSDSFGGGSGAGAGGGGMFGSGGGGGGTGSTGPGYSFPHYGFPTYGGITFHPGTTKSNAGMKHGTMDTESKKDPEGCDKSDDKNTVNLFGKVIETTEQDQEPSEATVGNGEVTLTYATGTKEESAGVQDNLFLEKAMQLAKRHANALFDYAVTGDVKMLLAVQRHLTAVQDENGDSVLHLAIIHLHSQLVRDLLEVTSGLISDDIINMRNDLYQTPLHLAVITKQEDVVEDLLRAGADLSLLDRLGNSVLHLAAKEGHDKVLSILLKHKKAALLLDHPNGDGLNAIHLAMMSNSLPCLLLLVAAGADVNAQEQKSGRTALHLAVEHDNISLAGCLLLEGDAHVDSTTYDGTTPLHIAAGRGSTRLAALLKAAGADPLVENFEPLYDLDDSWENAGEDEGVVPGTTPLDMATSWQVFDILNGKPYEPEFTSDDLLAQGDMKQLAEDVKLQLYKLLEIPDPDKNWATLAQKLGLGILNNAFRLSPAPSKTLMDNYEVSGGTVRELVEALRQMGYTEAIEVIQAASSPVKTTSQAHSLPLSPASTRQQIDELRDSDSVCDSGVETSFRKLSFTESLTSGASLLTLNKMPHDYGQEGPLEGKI
T1 sequence (Q00653 whole entry, looked up): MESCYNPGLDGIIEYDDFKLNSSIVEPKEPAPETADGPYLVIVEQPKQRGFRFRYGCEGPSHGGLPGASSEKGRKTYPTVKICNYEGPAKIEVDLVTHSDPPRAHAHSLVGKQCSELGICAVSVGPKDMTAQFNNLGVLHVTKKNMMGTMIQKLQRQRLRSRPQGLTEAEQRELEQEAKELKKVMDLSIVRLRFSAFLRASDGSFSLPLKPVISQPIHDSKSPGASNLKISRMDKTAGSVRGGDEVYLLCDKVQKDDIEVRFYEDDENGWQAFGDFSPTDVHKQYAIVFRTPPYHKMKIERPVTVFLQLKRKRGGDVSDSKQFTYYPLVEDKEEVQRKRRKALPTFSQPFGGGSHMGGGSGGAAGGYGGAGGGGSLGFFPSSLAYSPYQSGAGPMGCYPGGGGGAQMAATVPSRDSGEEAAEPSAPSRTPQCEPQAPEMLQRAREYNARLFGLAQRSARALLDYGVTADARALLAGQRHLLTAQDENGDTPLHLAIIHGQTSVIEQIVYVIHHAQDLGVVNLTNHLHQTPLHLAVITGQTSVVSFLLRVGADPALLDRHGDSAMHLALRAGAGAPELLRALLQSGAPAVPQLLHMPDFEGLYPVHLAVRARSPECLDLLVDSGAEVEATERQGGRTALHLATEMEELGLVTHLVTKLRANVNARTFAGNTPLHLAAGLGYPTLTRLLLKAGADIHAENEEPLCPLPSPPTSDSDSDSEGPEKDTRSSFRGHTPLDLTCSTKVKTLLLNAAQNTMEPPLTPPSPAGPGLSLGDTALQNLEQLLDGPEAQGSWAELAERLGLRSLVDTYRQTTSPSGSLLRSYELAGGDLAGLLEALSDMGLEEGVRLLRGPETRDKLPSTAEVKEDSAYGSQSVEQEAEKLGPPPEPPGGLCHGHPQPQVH
T1 sequence (Q04206 whole entry, looked up): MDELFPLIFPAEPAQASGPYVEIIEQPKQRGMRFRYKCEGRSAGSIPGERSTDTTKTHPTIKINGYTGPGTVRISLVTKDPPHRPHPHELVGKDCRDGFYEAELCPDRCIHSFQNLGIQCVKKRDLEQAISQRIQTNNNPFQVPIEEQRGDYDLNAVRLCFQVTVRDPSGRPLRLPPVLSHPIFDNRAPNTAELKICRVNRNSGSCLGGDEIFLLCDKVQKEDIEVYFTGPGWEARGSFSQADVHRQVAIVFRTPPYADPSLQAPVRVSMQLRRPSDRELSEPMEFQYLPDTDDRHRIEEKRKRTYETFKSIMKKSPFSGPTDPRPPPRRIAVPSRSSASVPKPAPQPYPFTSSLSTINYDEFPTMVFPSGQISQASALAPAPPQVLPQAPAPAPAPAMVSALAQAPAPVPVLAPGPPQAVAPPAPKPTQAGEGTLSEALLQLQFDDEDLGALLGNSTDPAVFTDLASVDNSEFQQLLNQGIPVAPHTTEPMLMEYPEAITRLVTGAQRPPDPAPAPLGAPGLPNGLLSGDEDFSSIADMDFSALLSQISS

C[C@@H]1CC[C@H]2[C@H](C(=O)c3c(O)c([C@@]4(O)CC[C@@H](O)[C@H]5O[C@H]54)cn(O)c3=O)[C@H](C)C=C[C@@H]2C1
Activity (HCT-116 [1]): 44.31% | Activity (Mus musculus [2]): Active | Activity (HCT-116 [3]): inactive | Activity [4]: Non-Toxic | inhibition [5]: Active | clearance [6]: 4 mL/min/kg | inhibition (Mus musculus [7]): Active | inhibition [8]: Active | Activity (HT-29 [9]): Dose-Dependent Effect | Activity [10]: Non-Toxic | inhibition [11]: Dose-Dependent Effect | Activity (HCT-116 [12]): 47% | Cmax [13]: 4590 ng/mL | inhibition [14]: Active | Activity (HCT-116 [15]): 12.3% | Activity (HCT-116 [16]): Dose-Dependent Effect | Activity (Mus musculus [17]): Active | Activity (HT-29 [18]): 67.37% | Activity (HT-29 [19]): Dose-Dependent Effect | Activity (Mus musculus [20]): Active | Activity (HCT-116 [21]): 43.65% | Activity [22]: Non-Toxic | Activity (HCT-116 [23]): Dose-Dependent Effect | Activity (HT-29 [24]): Active | inhibition [25]: Dose-Dependent Effect | Activity (HCT-116 [26]): 75% | viability at 5 µM (HCT-116 [27]): 16.5% | viability at 0.5 µM (HT-29 [28]): 55.5% | CL/F [29]: 27 mL/min/kg | inhibition (HT-29 [30]): Active | inhibition (HT-29 [31]): inactive | Activity (HCT-116 [32]): Active
